Results as given in article PMC7082753, “Hazards of Using Masking Protocols When Performing Ligand Binding Assays: Lessons From the Sigma-1 and Sigma-2 Receptors” (Frontiers in Pharmacology, 2020).
Where two headings read alike, the source gives them in different places.

Experiments:
sigma-2 receptor [1] = conditions: PC12 cells, ref Hellewell and Bowen, 1990, cited from earlier work
sigma-1 receptor [2] = target: sigma-1 receptor; parameters: method as in Largent et al., 1987; conditions: ref Largent et al., 1987, cited from earlier work
sigma-2 receptor [3] = target: T1, sigma-2 receptor (Homo sapiens, UniProt Q5BJF2); experiment: Two-site competition of (+) pentazocine with [³H] DTG in MDA-MB-468 membranes, low-affinity site; assay type: binding; parameters: endogenous in cells; conditions: two-site analysis
Experimental: (§1) Competition binding assays (total volume 100 μl) were performed using a final assay concentration of 50 nM, 100 nM, or 1 µM [^3H] […] Alternatively, 10–30 nM [³H] […] The assay was then allowed to equilibrate at room temperature for 4 h. […] Tubes and filter discs were washed with ice-cold TBS (2 x 3 ml), and the filter discs dried under vacuum.

sigma sites = conditions: spinal cord; competition experiments; ref Kovacs and Larson, 1995; cited from earlier work
sigma-1 receptor [4] = conditions: not affected by GTP or suramin; ref Brimson et al., 2011; cited from earlier work
sigma-1 receptor [5] = target: T2, sigma-1 receptor (Homo sapiens, UniProt Q99720); assay type: binding; conditions: MDA-MB-468; two-site analysis
T2 construct: sigma-1 receptors in membranes prepared from MDA-MB-468 cells; endogenous in cells; host or cells: MDA-MB-468 (ATCC HTB-132) cell membranes
Experimental: as §1

sigma-1 receptor [6] = experiment: Saturation binding of [³H] (+) pentazocine to MCF7 cell membranes; parameters: species or system human
Experimental: MDA-MB-468 cells were maintained in DMEM, high glucose (41965-062) supplemented with 10% foetal calf serum. MCF7 cells were maintained in MEM (M2279) supplemented with 2 mM L-glutamine and 10% foetal calf serum. Cells were cultured at 37°C in a humidified incubator with 5% CO2. […] The supernatant was discarded and the pellet suspended in SBB.
Assays (total volume 100 µl) were performed using 0–300 nM [^3H] […] Non-specific binding was determined using 1 mM reduced haloperidol ([Schetz et al., 2007]). […] Assays were terminated by addition of ice-cold tris-buffered saline (TBS: 154 mM NaCl, 10 mM Tris, pH 7.4) and filtration through glass fibre filters (GF/B, Sigma-Aldrich, Poole, UK) using a cell harvester. Tubes and filter discs were washed (2 x 3 ml) with ice-cold TBS, and the filter discs dried under vacuum. Scintillation counting was carried out in ProSafe FC+ cocktail (Meridian Biotechnologies Ltd, Tadworth, UK) after overnight incubation.

sigma-2 receptor [7] = target: T1, sigma-2 receptor; experiment: [³H] DTG saturation binding to MCF7 membranes in absence or presence of (+) pentazocine; parameters: from sigma-2 receptors in membranes prepared from MCF7 cells; endogenous in cells; host or cells: MCF7 (ATCC HTB-22) cell membranes
Experimental: (§2) Assays (total volume 100 μl) were performed at room temperature for 4 h with 1–300 nM [^3H] […] Assays were terminated by addition of ice-cold TBS and filtration through glass fibre filters (GF/C, Sigma-Aldrich, Poole, UK) using a cell harvester. Tubes and filter discs were washed with ice-cold TBS (2 x 3 ml) and the filter discs dried under vacuum. Scintillation counting was carried out in ProSafe FC+ cocktail after overnight incubation.

[8] = tested on: residual binding sites for [³H] DTG in TMEM97 knock-out HeLa cells; conditions: cited from earlier work
sigma receptors = experiment: Saturation binding of pan-sigma ligand [³H] DTG to MDA-MB-468 cell membranes; parameters: species or system human; conditions: MDA-MB-468 membranes; n = 3
Experimental: as §2

sigma-2 receptor [9] = target: sigma-2 receptor; parameters: method as in Hou et al., 2006; Zeng et al., 2019; conditions: ref Hou et al., 2006; Zeng et al., 2019; cited from earlier work
sigma-1 receptor [10] = target: sigma-1 receptor; parameters: method as in Hou et al., 2006; Zeng et al., 2019; conditions: ref Hou et al., 2006; Zeng et al., 2019; cited from earlier work
sigma-2 receptor [11] = experiment: Literature [³H] DTG and [³H] PPP binding in PC12 cells and affinity estimated from it; parameters: species or system rat; conditions: for K30: 30 % displacement; for Ki: data of ref Hellewell and Bowen, 1990
From the text: Calculations for saturation binding are based on non-linear analysis of idealised data.

sigma-1 receptor [12] = experiment: Literature dextrallorphan competition against [³H] PPP (Largent et al.); assay type: binding; conditions: data of ref Largent et al., 1987
sigma-1 receptor [13] = conditions: ref Hellewell and Bowen, 1990; read-out: Ki (sigma-1 affinity); cited from earlier work

T1 sequence (Q5BJF2 whole entry): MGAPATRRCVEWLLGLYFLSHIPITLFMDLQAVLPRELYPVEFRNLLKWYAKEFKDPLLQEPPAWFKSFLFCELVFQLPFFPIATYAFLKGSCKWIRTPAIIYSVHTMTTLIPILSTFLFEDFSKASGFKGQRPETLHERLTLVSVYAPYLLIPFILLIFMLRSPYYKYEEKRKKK
T2 sequence (Q99720 whole entry): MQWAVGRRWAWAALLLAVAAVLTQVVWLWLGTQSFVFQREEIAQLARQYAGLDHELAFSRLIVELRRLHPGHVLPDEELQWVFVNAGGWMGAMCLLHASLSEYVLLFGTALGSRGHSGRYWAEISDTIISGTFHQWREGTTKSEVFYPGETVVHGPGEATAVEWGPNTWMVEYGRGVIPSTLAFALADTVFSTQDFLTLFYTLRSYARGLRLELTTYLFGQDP

**Q.** Which results are given for `CCCN1CCCC(c2cccc(O)c2)C1` (single isomer, unassigned; (+)) [PPP, (+)-3-(3-hydroxyphenyl)-N-(1-propyl)piperidine]?
**A.** Kd (sigma-2 receptor [1]; PPP): 86.3 nM; Kd (sigma-1 receptor [2]; radioligand [³H] PPP): 30 nM

**Q.** With `CC(C)=CCN1CC[C@]2(C)c3cc(O)ccc3C[C@H]1[C@H]2C` [(+) pentazocine, (1S,9S,13S)-1,13-dimethyl-10-(3-methylbut-2-en-1-yl)-10-azatricyclotrideca-2,4,6-trien-4-ol] as the compound, how does the “% of sites with low affinity” value (sigma-2 receptor [3]) read?
**A.** 64%

**Q.** And the “[³H] DTG displaced with high affinity” value (sigma sites)?
**A.** 30%

**Q.** What about the “displacement of DTG and PPP binding” value (sigma-2 receptor [1]) of the same compound?
**A.** low-affinity

**Q.** What about the Hill slope (sigma-1 receptor [4]) of the same compound?
**A.** unity

**Q.** What about the “% of sites with high affinity” value (sigma-1 receptor [5]) of the same compound?
**A.** 36%

**Q.** What about the specific binding (sigma-1 receptor [6]) of the same compound?
**A.** no specific binding

**Q.** And the “effect on Bmax of [³H] DTG” value (sigma-2 receptor [7]; 100 nM (+) pentazocine)?
**A.** did not affect

**Q.** And the “effect on calculated Bmax of [³H] DTG” value (sigma-2 receptor [7]; 1 µM (+) pentazocine)?
**A.** did not affect

**Q.** For `Cc1ccccc1NC(=N)Nc1ccccc1C` [DTG, 1,3-di-O-tolylguanidine], which Kd ([8]; presence of 1 μM (+) pentazocine, ref Riad et al., 2018, Zeng et al., 2019, read-out: apparent Kd) is on record?
**A.** 300 to 400 nM

**Q.** And the pKd (sigma receptors)?
**A.** 7.88 ± 0.01

**Q.** Which “detection of residual binding when used as radioligand” value ([8]; ref Zeng et al., 2019) does the source give for `COc1cc2c(cc1OC)CN(CCCCNC(=O)c1cc(I)cc(OC)c1OC)CC2` [RHM-4] here?
**A.** unable to detect this residual binding

**Q.** What about the Ki (sigma-2 receptor [9]) of the same compound?
**A.** 8.2 nM

**Q.** What about the Ki (sigma-1 receptor [10]) of the same compound?
**A.** 12900 nM

**Q.** Which K30 (sigma-2 receptor [11]; calculated using DTG (5 nM, Kd […])) does the source give for `C=CCN1CC[C@@]23CCCC[C@@H]2[C@@H]1Cc1ccc(O)cc13` [dextrallorphan] here?
**A.** 18.76 µM

**Q.** And the K30 (sigma-2 receptor [11]; calculated using PPP (3 nM, Kd 86.3 nM))?
**A.** 6.55 µM

**Q.** What about the Ki (sigma-2 receptor [11]; estimated from DTG data in PC12 cells) of the same compound?
**A.** 44700 nM

**Q.** What about the Ki (sigma-2 receptor [11]; estimated from PPP data in PC12 cells) of the same compound?
**A.** 15000 nM

**Q.** What about the Ki (sigma-1 receptor [12]; Cheng-Prusoff correction of IC50 163 nM, read-out: Ki) of the same compound?
**A.** 153 to 158 nM

**Q.** And the Ki (sigma-1 receptor [12]; lowest calculated affinity, from Ki 153-158 nM, read-out: sigma-1 affinity used for modelling)?
**A.** 155 nM

**Q.** What about the “displacement of [³H] DTG or [³H] PPP” value (sigma-2 receptor [1]; 5 μM dextrallorphan) of the same compound?
**A.** less than 30%

**Q.** And the IC50 (sigma-1 receptor [2]; against 1-2 nM [³H] PPP)?
**A.** 163 nM

**Q.** What about the Ki (sigma-1 receptor [13]) of the same compound?
**A.** 16.1 nM
